Among the data in PMC9917023, “Stabilization of Monomeric Tau Protein by All D-Enantiomeric Peptide Ligands as Therapeutic Strategy for Alzheimer’s Disease and Other Tauopathies” (International Journal of Molecular Sciences, 2023) are Kd and koff values, retold here.

Assay [1] has as its target T1, R3 domain of tau (Homo sapiens, UniProt P10636).
T1 construct: purchased CASLO ApS, Lyngby, Denmark; host or cells: synthetic peptide
In words: SPR measurement (Biacore 8K, single cycle). The class given is binding. The conditions noted are these: single cycle kinetics, peptide immobilized on CM5 chip, R3 (304-336) 3.125-100 nM as analyte, PBS pH 7.4, 0.05% Tween20, 1:1 fit. The protocol: (§1) Figure 8 SPR measurements of TF2D-5 and TF2D-5a with monomeric full-length tau 441 and tau repeat region 3. […] The concentration of tau during the measurement ranged from 3.125 nM to 25 nM. […] Tau was used in concentrations ranging from 31.25 nM to 500 nM. SPR measurements of A and B were recorded on a T200 Biacore instrument, the corresponding compound was immobilized on a CM5 chip from Cytiva while monomeric tau served as analyte. Tests were performed with TBS pH 7.4, 0.05% Tween20 and 10 µM DTT as running buffer. Fit calculation was completed with the internal evaluation software of the T200 Biacore. A 1:1 model was used for both fits. […] The concentrations for the single cycle measurement ranged from 3.125 nM to 100 nM. Measurements of C were performed on a Biacore 8K using a CM5 chip from Cytiva. TF2D-5a was immobilized on the chip while the R3 region of tau was used as analyte. PBS pH 7.4 with 0.05% Tween20 as used as running buffer. Fit calculation was performed using the Biacore insight evaluation software and a 1:1 model. […]
Measurements of TF2D-5a against the R3 domain of tau were performed on a Biacore 8K (GE Healthcare, Uppsala, Sweden) using a single cycle experiment. […] The data were analyzed using the Biacore insight evaluation software 3.0.12.15655 using a 1:1 fit.

Assay [2] addresses T2, monomeric full-length tau 441 (Homo sapiens, UniProt P10636).
T2 construct: The gene for the human full-length tau was prepared on a plasmid called pET28a(+)-tau2N4R; made in house; host or cells: E. coli pRare
The assay can be described thus: SPR measurement (Biacore T200, multicycle). Format: binding. Particulars: compound immobilized on CM5 chip, tau as analyte, 1:1 fit, dissociation time 60 min; read-out: dissociation rate (kd). How it is done: as §1
Measurements of TF2D-5 and TF2D-5a against full-length tau 441 were performed on a Biacore T200 (Biacore, GE Healthcare, Uppsala, Sweden) using multicycle experiments. […] The data were evaluated using the Biacore T200 Evaluation Software 3.2 using a 1:1 fit (RI = 0).

Non-standard residues stand in square brackets, D forms with d. Residues, ends and D or L forms follow the SMILES beside them.

T2 sequence (P10636 1-441 isoform P10636-8): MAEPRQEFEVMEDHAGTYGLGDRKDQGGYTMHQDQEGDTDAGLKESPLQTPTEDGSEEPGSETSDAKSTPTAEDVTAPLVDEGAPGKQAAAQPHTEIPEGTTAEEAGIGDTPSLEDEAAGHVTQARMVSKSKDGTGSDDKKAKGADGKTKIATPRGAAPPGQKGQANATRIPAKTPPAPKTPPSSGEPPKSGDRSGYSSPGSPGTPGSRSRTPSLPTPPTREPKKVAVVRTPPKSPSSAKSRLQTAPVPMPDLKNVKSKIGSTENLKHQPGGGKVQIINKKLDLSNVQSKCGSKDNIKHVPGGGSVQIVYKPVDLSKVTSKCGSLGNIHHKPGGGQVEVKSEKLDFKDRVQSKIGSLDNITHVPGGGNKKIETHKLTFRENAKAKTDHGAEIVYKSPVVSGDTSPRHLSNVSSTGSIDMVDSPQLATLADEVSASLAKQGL
T1 sequence (P10636 622-652 limits assumed): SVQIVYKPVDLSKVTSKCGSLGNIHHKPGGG

`CC[C@@H](C)[C@@H](NC(=O)[C@@H](Cc1c[nH]cn1)NC(=O)CNC(=O)CNC(=O)[C@H]1CCCN1C(=O)[C@H](NC(=O)[C@@H](CCCCN)NC(=O)[C@@H](Cc1ccccc1)NC(=O)[C@@H](CC(C)C)NC(=O)[C@H](NC(=O)[C@@H](CCC(N)=O)NC(=O)[C@@H](Cc1ccc(O)cc1)NC(=O)CNC(=O)CNC(=O)[C@H](N)CC(=O)O)[C@H](C)CC)[C@H](C)CC)C(=O)N[C@H](Cc1c[nH]cn1)C(=O)N[C@H](CCCNC(=N)N)C(=O)N[C@H](CCCNC(=N)N)C(=O)N[C@H](CCCNC(=N)N)C(=O)N[C@H](CCCNC(=N)N)C(=O)N[C@H](CCCNC(=N)N)C(N)=O` [TF2D-5a] (H-[dD]GG[dY][dQ][dI][dL][dF][dK][dI][dP]GG[dH][dI][dH][dR][dR][dR][dR][dR]-NH2): the Kd (usually the free concentration of one partner at which half of the binding sites on the other are occupied at equilibrium, for simple one-to-one binding) in assay [1] stood at 7.06 pM. Further, the koff in assay [2] amounted to 4.3e-05 s⁻¹.
For the compound `CC[C@@H](C)[C@@H](NC(=O)[C@@H](Cc1c[nH]cn1)NC(=O)CNC(=O)CNC(=O)[C@H]1CCCN1C(=O)[C@H](NC(=O)[C@@H](CCCCN)NC(=O)[C@@H](Cc1ccccc1)NC(=O)[C@@H](CC(C)C)NC(=O)[C@H](NC(=O)[C@@H](CCC(N)=O)NC(=O)[C@@H](Cc1ccc(O)cc1)NC(=O)CNC(=O)CNC(=O)[C@H](N)CC(=O)O)[C@H](C)CC)[C@H](C)CC)C(=O)N[C@H](Cc1c[nH]cn1)C(N)=O` [TF2D-5] (H-[dD]GG[dY][dQ][dI][dL][dF][dK][dI][dP]GG[dH][dI][dH]-NH2), the koff in assay [2] was 1.9e-05 s⁻¹.
